Series [1] relates to HepG2 cells. In words: MTT test with HepG2 cells, 48 h. The following applies: HepG2, 48 h. The class given is cell-based. How it is done:
(§1) Cytotoxic properties of 1 are unusual, so an additional cytotoxicity assay with HepG2 cells was carried out and CC50 values were estimated (Figure 5).
(§2) The fact that ligand 1 itself has cytotoxic properties can be interpreted as the existence of a pharmacological target, specific to 1. The detection of potential targets for ligand 1 involves research on cell cycle influence and many other assays, and will be carried out in future studies.
(§3) Figure 5 An effect of compound 1 at concentrations of 0.001–100 µM on the metabolic activity (viability) of HepG2 cells during 48 h incubation in the MTT test.

Series [2] can be described thus: MTT test with HepG2 cells, 48 h. The class given is cell-based. The following applies: human, HepG2 cells; HepG2, 48 h incubation, MTT. The method, then:
as §1, §2, §3
(In general: Formazan colour is commonly taken as a measure of viable cells.)

Series [3] can be described thus: Hydrolysis stability at different pH (UV-vis). The following applies: phosphate buffer, pH = 5 and pH = 7; absorbance 250–500 nm. The class given is physicochemical. How it is done: Investigations of potential drug pharmacokinetics are an important part of the evaluation of its potential efficacy and applicability. On the base level, this can be studied in vitro as a hydrolysis stability assay at different pH levels. […] The stability of compounds was estimated as an optical density drop at λ = 250–500 nm at pH = 5 and pH = 7 (Figure 3 and Figure 4).
The stability of synthesized compounds was estimated spectrophotometrically. To 1.5 mL of either phosphate buffer with pH = 5.0 or phosphate buffer with pH = 7.4, 300 µL of 2 mM test solution in MeOH was added. Then adsorption spectra at λ = 250–500 nm were recorded for 20 h. Graphs were built using OriginPro 2019b.

Series [4] deals with A549 (human lung adenocarcinoma). In words: MTT-test A549. The class given is cell-based. The method, then:
(§4) Since the investigated compounds are designed as theranostic and cytostatic agents, their toxic impact was evaluated as a standard MTT-test. Cytotoxicity was studied on four cell lines, i.e.,—HCT116 (human colorectal carcinoma), MCF-7 (human breast cancer), A549 (human lung adenocarcinoma), and WI-38 (human fetal lung fibroblast). Obtained results appear to be unorthodox: as it is known, the introduction of an organotin moiety tends to noticeably increase compounds’ toxicity and more lipophilic ones do it better, but in the presented data pattern turns vice versa (Table 3).
(§5) HCT-116 (colon carcinoma), MCF-7 (breast adenocarcinoma), A-549 (lung adenocarcinoma) cell lines, and WI-38 (cell line composed of fibroblasts) were derived from The European Collection of Authenticated Cell Cultures (ECACC, Salisbury, UK), cultured in DMEM medium (Gibco™, Dublin, Ireland) supplemented with 10% fetal bovine serum (Gibco™, Brasilia, Brazil). The cells were cultured in an incubator at 37 °C in a humidified 5% CO2 atmosphere and subcultured two times a week.
(§6) The toxicity of compounds was studied on cultured cell lines according to standard MTT protocol.

For series [5], the system named is HCT116 (human colorectal carcinoma). As to the kind of experiment: MTT-test HCT116. The class given is cell-based. How it is done: as §4, §5, §6
Series [6] deals with superoxide radical anion O2−• (xanthine-xanthine oxidase system). As to the kind of experiment: NBT-test, superoxide generated in the xanthine-xanthine oxidase system. The class given is biochemical. The following applies: for I (NBT-Test): 0.006 mL of 5 mM compound in DMSO per 0.3 mL well, 600 s, 560 nm, negative = stimulation. An excerpt: Xanthine oxidase is molybdenum containing enzyme responsible for purine catabolism in the human organism. It is capable of xanthine oxidation, resulting in uric acid and superoxide radical anion as a side product. The latter one is well-known ROS, and the ability to neutralize it marks the compound as a perspective antioxidant. This is followed by the interaction of O2^−• and nitro-blue tetrazolium resulting in the cycle opening (Scheme 4), which is accompanied by the color change with λmax = 560 nm and can be monitored spectrophotometrically.
The influence of compounds on superoxide radical anion О2^−• generated in the enzymatic system xanthine-xanthine oxidase was estimated as the amount of nitro-blue tetrazolium (NBT) reduced to formazan. The assay was carried out in 96-well plates. The total volume of a single well was 0.3 mL and consisted of 0.27 mL of carbonate buffer (40 mM, pH 10.0) containing EDTA (0.1 mM), 0.006 mL of xanthine (10 mM) in carbonate buffer, 0.003 mL of 0.5% bovine serum albumin in water, 0.003 mL of NBT chloride (2.5 mM) in water, and 0.006 mL of a solution of the studied compound in DMSO (5 mM). Xanthine oxidase (0.012 mL, 0.004 units) in buffer was added to the mixture at rt to start the reaction and the absorption at λmax = 560 nm was recorded for 600 s. The control experiment was performed in the presence of 0.006 mL DMSO without a compound. All experiments were performed in triplicate.
Inhibition was expressed by the Equation (2):I (%) = (ν0/ν0′) × 100%,(2) where v0 and v0′ are initial rates of the enzymatic reaction in the presence and absence (control) of the compounds under study, respectively.
The initial rate (v0 and v0′) was calculated by the Equation (3):ν0 = ΔС/Δt = ΔA/(Δt × ε) = tgα/(Δt × ε),(3)
A1 is the absorbance in the presence of the testing compound at the end of the reaction (600 s), and A0 is the absorbance of the blank solution. ΔA is the difference between A1 and A0. All experiments were performed in triplicate.

Like-named read-outs stand apart in the source and are kept apart here.

What is called CC50 is the concentration that lowers cell viability or growth by half. Higher therefore signals better tolerance by the cells. By IC50 is commonly meant the point on the concentration scale where inhibition reaches its midpoint. The melting point is the temperature of the solid-liquid transition. `CC(C)(C)c1cc(C(=O)N/N=C/c2ccccc2O)cc(C(C)(C)C)c1O` [Compound 1, Di-tert-butyl-4-hydroxy-N′-(2-hydroxybenzylidene)-benzohydrazine]: the melting point fell in the range of 265 to 269 °C. For the same compound, in series [1] (3 µM), the “Suppression of vital activity relative to the control” value stood at 25.8 ± 4.0%. Besides, in series [1] (MTT), the “Minimal concentration that significantly suppresses vital activity” value is recorded as 3 µM. Further, the CC50 at 48 h in series [2] stood at 12.4 ± 2 µM. Moreover, the “Time after which decomposition (hydrolysis) is seen” value in series [3] is given as “approximately 1 h”. The compound also displayed an IC50 in series [4] (Homo sapiens, A549) of 2.2 ± 0.4 µM. Moreover, the IC50 in series [5] (Homo sapiens, HCT-116) amounted to 1.7 ± 0.4 µM. For the same compound, in series [6], the “I (NBT-Test)” value was determined as 0.5 ± 0.1%.

Turning to `CC(C)(C)c1cc(C2=NN=Cc3ccccc3[O][Sn]([CH3])([CH3])[O]2)cc(C(C)(C)C)c1O` [Compound 2, Me2SnL], the values for the IC50 in series [4] and in series [5] were 2.2 ± 0.7 µM and 2.4 ± 0.8 µM, respectively. Also, the “I (NBT-Test)” value in series [6] was found to be 6.3 ± 1.8%.

Regarding `C[CH2][Sn]1([CH2]C)[O]C(c2cc(C(C)(C)C)c(O)c(C(C)(C)C)c2)=NN=Cc2ccccc2[O]1` [Compound 3, Et2SnL], the results for the concentration for half-maximal inhibition (IC50) in series [4] and in series [5] were 1.5 ± 0.5 µM and 1.4 ± 0.5 µM, respectively. The “I (NBT-Test)” value in series [6] is recorded as 7.3 ± 2.0%.

As to `CCC[CH2][Sn]1([CH2]CCC)[O]C(c2cc(C(C)(C)C)c(O)c(C(C)(C)C)c2)=NN=Cc2ccccc2[O]1` [Compound 4, Bu2SnL], the IC50 in series [4] worked out at 14.5 ± 4.5 µM; in series [5], 10 ± 2.3 µM. The “I (NBT-Test)” value in series [6] is −4.6 ± 1.2%.

As to `CC(C)(C)c1cc(C2=NN=Cc3ccccc3[O][Sn]([C](C)(C)C)([C](C)(C)C)[O]2)cc(C(C)(C)C)c1O` [Compound 5, Bu^t2SnL], the IC50 in series [4] was 43 ± 10 µM; in series [5], 34.3 ± 14 µM. The “I (NBT-Test)” value in series [6] is recorded as 5.9 ± 1.5%.

The compound `CC(C)(C)c1cc(C2=NN=Cc3ccccc3[O][Sn]([c]3ccccc3)([c]3ccccc3)[O]2)cc(C(C)(C)C)c1O` [Compound 6, Ph2SnL] came in with an IC50 in series [4] of 20.2 ± 4 µM. Further, in series [5], half-maximal inhibition (IC50) required 20 ± 11 µM. In series [6], the “O2−• scavenging in NBT-test” value is “stimulate O2^−· formation instead of inhibiting it” and the “I (NBT-Test)” value is given as −28.0 ± 3.6%.

On to `CC(C)(C)c1cc(C2=NN=Cc3ccccc3[O][Sn]([c]3cc(C(C)(C)C)c(O)c(C(C)(C)C)c3)([c]3cc(C(C)(C)C)c(O)c(C(C)(C)C)c3)[O]2)cc(C(C)(C)C)c1O` [Compound 7, (2,6-Di-tert-butylphenol)2SnL], for which the IC50 came out at 31.9 ± 5.7 µM in series [4] and 20.5 ± 6.4 µM in series [5]. Also, in series [6], the “O2−• scavenging in NBT-test” value is recorded as “stimulate O2^−· formation instead of inhibiting it”. The “I (NBT-Test)” value in series [6] is listed as −40.5 ± 4.2%.

The values are drawn from publication PMC9741287, “Cytotoxic and Luminescent Properties of Novel Organotin Complexes with Chelating Antioxidant Ligand” (Molecules, 2022).
